Square brackets hold non-standard residues; d marks the D form. Peptide text beside a SMILES is read from it. * marks the point of attachment. Cbz = O=C(OCc1ccccc1)*
What was measured:
[1] = test system: carboxypeptidase; conditions: compared with the L-enantiomorph, which is hydrolysed; cited from earlier work
[2] = test system: sense of smell; experiment: Human smell test of menthol enantiomers evaporated from acetone solution in Petri dishes; type: in vivo; conditions: 0.001M solution in acetone, twenty drops, acetone evaporated at room temperature; six human subjects, test performed twice each
Description: The naturally-occurring optical isomer of menthol (1R,2S,5R)−(−) is used as a fragrance in a variety of products, such as perfumes, gums, and cigarettes. Both the natural and the unnatural (1S,2R,5S)−(+) optical isomer of menthol were obtained in 99% purity. A 0.001M solution of each enantiomer was prepared in reagent grade acetone. The solutions were allowed to equilibrate at room temperature for approximately one hour. Twenty drops of each solution were pipetted into separate glass Petri dishes. All glassware was clean. The acetone was then allowed to evaporate at room temperature. A human subject then smelled the two Petri dishes separately and recorded any sensations. The subject had been instructed to determine the presence of odor in the Petri dishes, and, if odor emanated from each, to determine whether the odors were the same or different. The test was performed twice on each of six human subjects, three female and three male. Each subject was given freshly prepared Petri dish servings to smell, and each immediately recorded his or hers impressions without communicating with the other subjects.

Structure (SMILES) | action of carboxypeptidase (hydrolysis) on the compound [1] | odor the same as or different from the natural form [2] | presence of odor [2]
O=C(CNC(=O)OCc1ccccc1)N[C@H](Cc1ccccc1)C(=O)O [carbobenzoxyglycyl-D-phenalalanine] (Cbz-Gly-[dF]-OH) | no measurable action |  | 
CC1CC[C@H](C(C)C)[C@@H](O)C1 (stereo partly drawn) [unnatural form of menthol, (1S,2R,5S)-(+)-Menthol] |  | the same as that of the natural form | had odor

From patent US6585964B1, “Method for preventing or minimizing biodegradation of a substance” (Biospherics Incorporated, priority 1999, dated 2003)
